Measured values reported in patent publication US8975234B2, “Anti-bacterial infection, inflammation, and leukemia composition and use thereof” (priority 2011, dated 2015).
In brackets after ≈: the same amount, converted by molar mass. Where two headings read alike, the source gives them in different places.

What was measured:
[1] = system: MSSA (Methicillin-susceptible Staphylococcus aureus); assay: Minimum inhibitory concentration (broth microdilution) and FIC index; assay type: cell-based
Description: (§1) A serial of twofold dilution of the tested antibiotics (oxacillin, erythromycin, ampicillin, kanamycin, levofoxacin, vancomycin and doxycycline) was perform by Broth microdilution method to a final concentration of 2-512 μg/mL. The bacterial overnight culture was collected and re-suspended in the Muller-Hilton (M-H) broth. An aliquot of cell suspension (OD600=0.1) was prepared. The bacterial suspensions were plated in 96-well plate and incubated with test antibiotics at 37° C. in a 5% CO2 incubator (Table 1 to Table 4).
(§2) The […], […] and antagonism between two drugs was evaluated by the following formula:
(§3) [formula] The criteria of fractional inhibitory concentration index: […]

MRSA 18271 = assay: as above; assay type: cell-based, Staphylococcus aureus
Description: as §1, §2, §3

MRSA 18631 = assay: as above; assay type: cell-based, Staphylococcus aureus
Description: as §1, §2, §3

MRSA 19615 [2] = assay: as above; assay type: cell-based, Staphylococcus aureus
Description: as §1, §2, §3

[3] = system: standard MRSA strain (ATCC 33591); assay: Minimum inhibitory concentration (broth microdilution); assay type: cell-based, Staphylococcus aureus; details: Staphylococcus aureus, Table 1
Description: as §1

[4] = system: 14 clinical isolated MRSA strains; assay: MIC and FIC index of oxacillin with Tellimagrandin II, clinical isolates; assay type: cell-based; details: Staphylococcus aureus
Description: 14 clinical isolated MRSA strains were tested with oxacillin and Tellimagrandin II (40 μg/mL) and the FIC index was calculated.
as §1, §2, §3

[5] = system: Staphylococcus aureus (MSSA and MRSA strains); assay: Synergy of antibiotics with Tellimagrandin II (text summary of Tables 1 to 4); assay type: cell-based; details: Table 2
Description: as §1, §2, §3

MRSA 19615 [6] = assay: Time-killing curve; assay type: cell-based, Staphylococcus aureus; details: 5 μg/mL alone
Description: MRSA 19615 bacteria were cultured overnight, collected and re-suspended in 25 mL MHB containing TGII and antibiotics of the indicated final concentration. To dilute the samples, samples were taken from the suspension at indicated time interval and mixed with filtered PBS, followed by spreading the diluted sample on MHA plated for two plates/each time point. Colony counts between 150 and 500 colonies in first time point was used to determine the dilution fold. Time-killing curves were calculated from colony counting and data analyzing was performed after overnight culture. Bacterial time-kill curves were constructed by plotting mean colony counts (log10 cfu/mL) versus time (FIGS. 4 and 5).

[7] = Table 3, MSSA, Tellimagrandin II (40 μg/ml) +
[8] = Table 3, 18271, Tellimagrandin II (40 μg/ml) +
[9] = Table 3, 18631, Tellimagrandin II (40 μg/ml) +
[10] = Table 3, 19615, Tellimagrandin II (40 μg/ml) +

SMILES: Cc1onc(-c2ccccc2)c1C(=O)N[C@@H]1C(=O)N2[C@@H]1SC(C)(C)[C@@H]2C(=O)O [Oxacillin]
- MIC ([1]; Staphylococcus aureus, MSSA, Table 1, MSSA, read-out: Minimum inhibitory concentration): 4 µg/mL
- MIC ([1]; Staphylococcus aureus, MSSA, Table 2, Non-drug resistant Staphylococcus aureus, with TG II 30 μg/mL, read-out: MIC): < 2 µg/mL
- MIC ([1]; Staphylococcus aureus, MSSA, Table 2, Non-drug resistant Staphylococcus aureus, with TG II 40 μg/mL, read-out: MIC): < 2 µg/mL
- MIC ([1]; Staphylococcus aureus, MSSA, Table 2, Non-drug resistant Staphylococcus aureus, without TG II, read-out: MIC): 4 µg/mL
- MIC ([1]; Staphylococcus aureus, MSSA, Table 3, MSSA, Tellimagrandin II (40 μg/ml) −, read-out: MIC): 4 µg/mL
- FIC ([1]; Table 2, Non-drug resistant Staphylococcus aureus, with TG II 30 μg/mL): 0.5
- FIC ([1]; Table 2, Non-drug resistant Staphylococcus aureus, with TG II 40 μg/mL): 0.5
- FIC [1, 7]: 0.5
- MIC [1, 7]: 2 µg/mL
- MIC (MRSA 18271; Staphylococcus aureus, MRSA, Table 1, MRSA 18271, read-out: Minimum inhibitory concentration): > 512 µg/mL
- MIC (MRSA 18271; Staphylococcus aureus, MRSA, Table 2, 18271, with TG II 30 μg/mL, read-out: MIC): 32 µg/mL
- MIC (MRSA 18271; Staphylococcus aureus, MRSA, Table 2, 18271, with TG II 40 μg/mL, read-out: MIC): 16 µg/mL
- MIC (MRSA 18271; Staphylococcus aureus, MRSA, Table 2, 18271, without TG II, read-out: MIC): 512 µg/mL
- MIC (MRSA 18271; Staphylococcus aureus, MRSA, Table 3, 18271, Tellimagrandin II (40 μg/ml) −, read-out: MIC): 512 µg/mL
- FIC (MRSA 18271; Table 2, 18271, with TG II 30 μg/mL): 0.0063
- FIC (MRSA 18271; Table 2, 18271, with TG II 40 μg/mL): 0.0031
- FIC (MRSA 18271; [8]): 0.031
- MIC (MRSA 18271; [8]): 16 µg/mL
- MIC (MRSA 18631; Staphylococcus aureus, MRSA, Table 1, MRSA 18631, read-out: Minimum inhibitory concentration): > 512 µg/mL
- MIC (MRSA 18631; Staphylococcus aureus, MRSA, Table 2, 18631, with TG II 30 μg/mL, read-out: MIC): 64 µg/mL
- MIC (MRSA 18631; Staphylococcus aureus, MRSA, Table 2, 18631, with TG II 40 μg/mL, read-out: MIC): 8 µg/mL
- MIC (MRSA 18631; Staphylococcus aureus, MRSA, Table 2, 18631, without TG II, read-out: MIC): 512 µg/mL
- MIC (MRSA 18631; Staphylococcus aureus, MRSA, Table 3, 18631, Tellimagrandin II (40 μg/ml) −, read-out: MIC): 512 µg/mL
- FIC (MRSA 18631; Table 2, 18631, with TG II 30 μg/mL): 0.125
- FIC (MRSA 18631; Table 2, 18631, with TG II 40 μg/mL): 0.016
- FIC (MRSA 18631; [9]): 0.016
- MIC (MRSA 18631; [9]): 8 µg/mL
- MIC (MRSA 19615 [2]; Staphylococcus aureus, MRSA, Table 1, MRSA 19615, read-out: Minimum inhibitory concentration): 512 µg/mL
- MIC (MRSA 19615 [2]; Staphylococcus aureus, MRSA, Table 2, 19615, with TG II 30 μg/mL, read-out: MIC): < 2 µg/mL
- MIC (MRSA 19615 [2]; Staphylococcus aureus, MRSA, Table 2, 19615, with TG II 40 μg/mL, read-out: MIC): 4 µg/mL
- MIC (MRSA 19615 [2]; Staphylococcus aureus, MRSA, Table 2, 19615, without TG II, read-out: MIC): 512 µg/mL
- MIC (MRSA 19615 [2]; Staphylococcus aureus, MRSA, Table 3, 19615, Tellimagrandin II (40 μg/ml) −, read-out: MIC): 512 µg/mL
- FIC (MRSA 19615 [2]; Table 2, 19615, with TG II 30 μg/mL): 0.004
- FIC (MRSA 19615 [2]; Table 2, 19615, with TG II 40 μg/mL): 0.008
- FIC (MRSA 19615 [2]; [10]): 0.008
- MIC (MRSA 19615 [2]; [10]): 4 µg/mL
- MIC [3]: 512 µg/mL (≈ 1280 µM)
- MIC ([4]; MRSA 1, oxacillin alone): 512 µg/mL
- MIC ([4]; MRSA 2, oxacillin alone): 512 µg/mL
- MIC ([4]; MRSA 3, oxacillin alone): 512 µg/mL
- MIC ([4]; MRSA 4, oxacillin alone): 512 µg/mL
- MIC ([4]; MRSA 5, oxacillin alone): 512 µg/mL
- MIC ([4]; MRSA 6, oxacillin alone): 256 µg/mL
- MIC ([4]; MRSA 7, oxacillin alone): 256 µg/mL
- MIC ([4]; MRSA 8, oxacillin alone): 128 µg/mL
- MIC ([4]; MRSA 9, oxacillin alone): 128 µg/mL
- MIC ([4]; MRSA 10, oxacillin alone): 64 µg/mL
- MIC ([4]; MRSA 11, oxacillin alone): 64 µg/mL
- MIC ([4]; MRSA 12, oxacillin alone): 64 µg/mL
- MIC ([4]; MRSA 13, oxacillin alone): 64 µg/mL
- MIC ([4]; MRSA 14, oxacillin alone): 32 µg/mL
- effect of antibiotic with Tellimagrandin II [5]: synergistic effect
- bacterial growth, time-killing curve (MRSA 19615 [6]): failed to inhibit bacterial growth
